Experimental data published in PubChem BioAssay (NCI).
Where “and” joins values, the source holds several entries; their conditions need not be identical. Equal entries are not always repeated.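 Dose response: 5 concentrations. Exposure: 48 h. Format: 96-well plates. Endpoint: linear interpolation; highest concentration if not reached. GI50 = concentration required for 50% inhibition of growth. TGI marks complete inhibition of growth.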

Key:
Test in all cases: inhibition of tumour cell growth, NCI panel, 48 h
RXF 393 renal = test system: RXF 393 renal
786-0 renal = test system: 786-0 renal
SK-MEL-28 melanoma = test system: SK-MEL-28 melanoma
M14 melanoma = test system: M14 melanoma
SF-539 CNS = test system: SF-539 CNS
SNB-19 CNS = test system: SNB-19 CNS
HOP-62 NSCLC = test system: HOP-62 NSCLC
COLO 205 colon = test system: COLO 205 colon
PC-3 prostate = test system: PC-3 prostate
CCRF-CEM leukemia = test system: CCRF-CEM leukemia
SK-MEL-2 melanoma = test system: SK-MEL-2 melanoma
OVCAR-5 ovarian = test system: OVCAR-5 ovarian
SF-268 CNS = test system: SF-268 CNS
UACC-62 melanoma = test system: UACC-62 melanoma
OVCAR-3 ovarian = test system: OVCAR-3 ovarian
KM12 colon = test system: KM12 colon
TK-10 renal = test system: TK-10 renal
HS 578T breast = test system: HS 578T breast
HL-60(TB) leukemia = test system: HL-60(TB) leukemia
NCI-H522 lung = test system: NCI-H522 lung
CAKI-1 renal = test system: CAKI-1 renal
NCI/ADR-RES ovarian = test system: NCI/ADR-RES ovarian
MDA-MB-231 breast = test system: MDA-MB-231 breast
SR leukemia = test system: SR leukemia
SK-OV-3 ovarian = test system: SK-OV-3 ovarian
OVCAR-4 ovarian = test system: OVCAR-4 ovarian
SK-MEL-5 melanoma = test system: SK-MEL-5 melanoma
K-562 leukemia = test system: K-562 leukemia
UACC-257 melanoma = test system: UACC-257 melanoma
NCI-H460 lung = test system: NCI-H460 lung
IGROV1 ovarian = test system: IGROV1 ovarian
MCF7 breast = test system: MCF7 breast
OVCAR-8 ovarian = test system: OVCAR-8 ovarian
NCI-H23 lung = test system: NCI-H23 lung
A549 NSCLC = test system: A549 NSCLC
HCT-15 colon = test system: HCT-15 colon
SW-620 colon = test system: SW-620 colon
HCT-116 colon = test system: HCT-116 colon
MALME-3M melanoma = test system: MALME-3M melanoma
DU-145 prostate = test system: DU-145 prostate
RPMI-8226 leukemia = test system: RPMI-8226 leukemia
T-47D breast = test system: T-47D breast
NCI-H226 lung = test system: NCI-H226 lung
EKVX NSCLC = test system: EKVX NSCLC
MOLT-4 leukemia = test system: MOLT-4 leukemia
A498 renal = test system: A498 renal
SN12C renal = test system: SN12C renal
UO-31 renal = test system: UO-31 renal
MDA-MB-435 = test system: MDA-MB-435
SF-295 CNS = test system: SF-295 CNS
HOP-92 NSCLC = test system: HOP-92 NSCLC
SNB-75 CNS = test system: SNB-75 CNS
ACHN renal = test system: ACHN renal
HT29 colon = test system: HT29 colon
U251 CNS = test system: U251 CNS
BT-549 breast = test system: BT-549 breast
LOX IMVI melanoma = test system: LOX IMVI melanoma
HCC-2998 colon = test system: HCC-2998 colon

Nc1cc(N)c2nc(-c3ccccc3)c(NCc3ccc(Cl)c(Cl)c3)nc2c1
GI50 (RXF 393 renal): 3.06 µM
TGI (RXF 393 renal): 16.8 µM
GI50 (786-0 renal): 13.1 µM
TGI (786-0 renal): 30.4 µM
GI50 (SK-MEL-28 melanoma): 18.8 µM
TGI (SK-MEL-28 melanoma): 41.7 µM
GI50 (M14 melanoma): 15.7 µM
TGI (M14 melanoma): 34.6 µM
GI50 (SF-539 CNS): 4.6 µM
TGI (SF-539 CNS): 18.8 µM
GI50 (SNB-19 CNS): 22.5 µM
TGI (SNB-19 CNS): 50.8 µM
GI50 (HOP-62 NSCLC): 15.7 µM
TGI (HOP-62 NSCLC): 31.9 µM
GI50 (COLO 205 colon): 16.9 µM
TGI (COLO 205 colon): 33.6 µM
GI50 (PC-3 prostate): 1.75 µM
TGI (PC-3 prostate): 5.16 µM
GI50 (CCRF-CEM leukemia): 0.133 µM
TGI (CCRF-CEM leukemia): 1.83 µM
GI50 (SK-MEL-2 melanoma): 1.91 µM
TGI (SK-MEL-2 melanoma): 4.26 µM
GI50 (OVCAR-5 ovarian): 23.8 µM
TGI (OVCAR-5 ovarian): 40.7 µM
GI50 (SF-268 CNS): 19.8 µM
TGI (SF-268 CNS): 55.2 µM
GI50 (UACC-62 melanoma): 14 µM
TGI (UACC-62 melanoma): 30.8 µM
GI50 (OVCAR-3 ovarian): 2.64 µM
TGI (OVCAR-3 ovarian): 6.98 µM
GI50 (KM12 colon): 3.42 µM
TGI (KM12 colon): 21.3 µM
GI50 (TK-10 renal): 12.8 µM
TGI (TK-10 renal): 30.5 µM
GI50 (HS 578T breast): 5.9 µM
TGI (HS 578T breast): 46.7 µM
GI50 (HL-60(TB) leukemia): 1.82 µM
TGI (HL-60(TB) leukemia): 7.94 µM
GI50 (NCI-H522 lung): 2.05 µM
TGI (NCI-H522 lung): 4.91 µM
GI50 (CAKI-1 renal): 13.2 µM
TGI (CAKI-1 renal): 52.7 µM
GI50 (NCI/ADR-RES ovarian): 17.4 µM
TGI (NCI/ADR-RES ovarian): 45.6 µM
GI50 (MDA-MB-231 breast): 1.58 µM
TGI (MDA-MB-231 breast): 4.45 µM
GI50 (SR leukemia): 1.63 µM
TGI (SR leukemia): 5.97 µM
GI50 (SK-OV-3 ovarian): 18.5 µM
TGI (SK-OV-3 ovarian): 35.9 µM
GI50 (OVCAR-4 ovarian): 11.7 µM
TGI (OVCAR-4 ovarian): > 100 µM
GI50 (SK-MEL-5 melanoma): 3.48 µM
TGI (SK-MEL-5 melanoma): 10.7 µM
GI50 (K-562 leukemia): 3.09 µM
TGI (K-562 leukemia): 17.8 µM
GI50 (UACC-257 melanoma): 4.53 µM
TGI (UACC-257 melanoma): 15.7 µM
GI50 (NCI-H460 lung): 20.8 µM
TGI (NCI-H460 lung): 46.9 µM
GI50 (IGROV1 ovarian): 1.97 µM
TGI (IGROV1 ovarian): 5.95 µM
GI50 (MCF7 breast): 12.4 µM
TGI (MCF7 breast): 54.3 µM
GI50 (OVCAR-8 ovarian): 3.41 µM
TGI (OVCAR-8 ovarian): 13.5 µM
GI50 (NCI-H23 lung): 14.2 µM
TGI (NCI-H23 lung): 27.8 µM
GI50 (A549 NSCLC): 10.8 µM
TGI (A549 NSCLC): 27.4 µM
GI50 (HCT-15 colon): 4.64 µM
TGI (HCT-15 colon): > 100 µM
GI50 (SW-620 colon): 3.26 µM
TGI (SW-620 colon): 9.88 µM
GI50 (HCT-116 colon): 11.5 µM
TGI (HCT-116 colon): 24.1 µM
GI50 (MALME-3M melanoma): 3.41 µM
TGI (MALME-3M melanoma): 13.8 µM
GI50 (DU-145 prostate): 16.2 µM
TGI (DU-145 prostate): 33.4 µM
GI50 (RPMI-8226 leukemia): 1.66 µM
TGI (RPMI-8226 leukemia): 3.72 µM
GI50 (T-47D breast): 19.4 µM
TGI (T-47D breast): 54.4 µM
GI50 (NCI-H226 lung): 22.6 µM
TGI (NCI-H226 lung): 46.3 µM
GI50 (EKVX NSCLC): 10.9 µM
TGI (EKVX NSCLC): 38.7 µM
GI50 (MOLT-4 leukemia): 2.07 µM
TGI (MOLT-4 leukemia): > 100 µM
GI50 (A498 renal): 17.4 µM
TGI (A498 renal): 32.4 µM
GI50 (SN12C renal): 5.98 µM
TGI (SN12C renal): 24 µM
GI50 (UO-31 renal): 4.17 µM
TGI (UO-31 renal): > 100 µM
GI50 (MDA-MB-435): 2.74 µM
TGI (MDA-MB-435): 7.56 µM
GI50 (SF-295 CNS): 15.5 µM
TGI (SF-295 CNS): 37.2 µM

Clc1ccc(N2N=C(c3cccc(Nc4ccncc4)c3)CC2c2ccc(Br)cc2)cc1 (stereo not drawn)
GI50 (RXF 393 renal): 1.62 µM
TGI (RXF 393 renal): 3.02 µM
GI50 (SF-539 CNS): 1.74 µM
TGI (SF-539 CNS): 3.26 µM
GI50 (COLO 205 colon): 2.26 µM
TGI (COLO 205 colon): 4.76 µM
GI50 (HOP-92 NSCLC): 1.39 µM
TGI (HOP-92 NSCLC): 2.85 µM
GI50 (PC-3 prostate): 1.57 µM
TGI (PC-3 prostate): 3.19 µM
GI50 (CCRF-CEM leukemia): 3.43 µM
TGI (CCRF-CEM leukemia): > 100 µM
GI50 (OVCAR-5 ovarian): 1.66 µM
TGI (OVCAR-5 ovarian): 3.1 µM
GI50 (UACC-62 melanoma): 1.77 µM
TGI (UACC-62 melanoma): 3.25 µM
GI50 (OVCAR-3 ovarian): 1.78 µM
TGI (OVCAR-3 ovarian): 3.29 µM
GI50 (KM12 colon): 1.73 µM
TGI (KM12 colon): 3.27 µM
GI50 (HL-60(TB) leukemia): 2.02 µM
TGI (HL-60(TB) leukemia): 4.51 µM
GI50 (CAKI-1 renal): 1.52 µM
TGI (CAKI-1 renal): 2.9 µM
GI50 (SK-OV-3 ovarian): 2 µM
TGI (SK-OV-3 ovarian): 3.92 µM
GI50 (OVCAR-4 ovarian): 1.83 µM
TGI (OVCAR-4 ovarian): 3.36 µM
GI50 (NCI-H460 lung): 1.85 µM
TGI (NCI-H460 lung): 3.53 µM
GI50 (IGROV1 ovarian): 1.8 µM
TGI (IGROV1 ovarian): 3.41 µM
GI50 (SNB-75 CNS): 1.41 µM
TGI (SNB-75 CNS): 2.9 µM
GI50 (SW-620 colon): 1.73 µM
TGI (SW-620 colon): 3.51 µM
GI50 (DU-145 prostate): 1.8 µM
TGI (DU-145 prostate): 3.25 µM
GI50 (ACHN renal): 1.7 µM
TGI (ACHN renal): 3.06 µM
GI50 (MOLT-4 leukemia): 2.34 µM
TGI (MOLT-4 leukemia): 6.17 µM
GI50 (A498 renal): 1.07 µM
TGI (A498 renal): 2.3 µM
GI50 (HT29 colon): 1.91 µM
TGI (HT29 colon): 4.48 µM
GI50 (SN12C renal): 1.67 µM
TGI (SN12C renal): 3.21 µM
GI50 (UO-31 renal): 1.41 µM
TGI (UO-31 renal): 2.75 µM
GI50 (MDA-MB-435): 1.65 µM
TGI (MDA-MB-435): 3.08 µM
GI50 (SF-295 CNS): 1.77 µM
TGI (SF-295 CNS): 3.2 µM

COc1cccc(/C=C/C(=O)N2CC(CCl)c3c2cc(N)c2ccccc32)c1 (stereo not drawn)
TGI (RXF 393 renal): 0.00342 µM
TGI (M14 melanoma): 0.105 µM
TGI (SNB-19 CNS): > 100 µM
TGI (PC-3 prostate): 0.0562 µM and 0.132 µM
TGI (SK-MEL-2 melanoma): 0.0224 µM
TGI (OVCAR-5 ovarian): 1.5 µM
TGI (UACC-62 melanoma): 0.0224 µM
TGI (OVCAR-3 ovarian): 1.72 µM
TGI (U251 CNS): 0.37 µM
TGI (KM12 colon): 0.0352 µM and 0.161 µM
TGI (HS 578T breast): 0.0409 µM
TGI (NCI-H522 lung): 0.00889 µM
GI50 (BT-549 breast): 0.0142 µM
TGI (SK-OV-3 ovarian): 1.16 µM
TGI (OVCAR-4 ovarian): 0.141 µM
TGI (K-562 leukemia): > 100 µM
TGI (NCI-H460 lung): 0.00325 µM
TGI (SNB-75 CNS): 0.0153 µM
TGI (MCF7 breast): 0.00568 µM
TGI (NCI-H23 lung): 0.0124 µM
TGI (LOX IMVI melanoma): 0.0065 µM
TGI (HCT-15 colon): 0.224 µM
TGI (SW-620 colon): > 100 µM
TGI (HCT-116 colon): 1.27 µM
TGI (HCC-2998 colon): 0.0166 µM
TGI (RPMI-8226 leukemia): > 100 µM
TGI (ACHN renal): 0.0024 µM
TGI (T-47D breast): 3.59 µM
TGI (NCI-H226 lung): 0.0425 µM
TGI (EKVX NSCLC): 0.145 µM and 0.0415 µM
TGI (A498 renal): 0.0342 µM
TGI (HT29 colon): 20 µM
TGI (UO-31 renal): > 100 µM
TGI (SF-295 CNS): 0.00953 µM
